Laboratory results reported in patent US20070037887A1, “Blockade of mtor to prevent a hormonal adaptive response” (University of Virginia Patent Foundation, priority 2003, published 2007).

Experiments:
mTOR-raptor complex [1] = molecular target: T1, mTOR-raptor complex (Rattus norvegicus, UniProt P42346+Q8N122); test: Coimmunoprecipitation of raptor with mTOR, compound added to cell extracts or immune complexes; format: binding; details: for amount of HA-raptor that coimmunoprecipitated with AU1-mTOR: extracts incubated with increasing concentrations
T1 construct: rows headed: amount of HA-raptor that coimmunoprecipitated with AU1-mTOR; other: extracts incubated with increasing concentrations; amount of HA-raptor that coimmunoprecipitated with AU1-mTOR; other: overexpressed in 293T cells, increasing concentrati; half maximal effect on raptor dissociation from mTOR; other: AU1-mTOR and HA-raptor overexpressed in 293T cells, 1 h; association of AU1-mTOR and HA-rapto
Experimental: 293T cells were transfected with pcDNA3 alone (Vec.) or with a combination of pcDNA3AU1-mTOR, pcDNA33HA-Raptor, and pcDNA33HA-mLST8. Extracts of the cells were incubated with increasing concentrations of FTS before AU1-mTOR was immunoprecipated. Samples of the immune complexes were incubated with [γ-^32P]ATP and recombinant [His^6]PHAS-I, then subjected to SDS-PAGE and transferred to an immobilon membrane. After obtaining a phosphorimage of the membrane to detect ^32P-PHAS-I, the membrane was immunoblotted with PThr^36/45 antibodies. Other samples of the immune complexes were subjected to SDS-PAGE and immunoblots were prepared with antibodies to the HA epitope or to mTOR (see FIG. 13A). Extracts of nontransfected 293T cells were incubated with increasing concentrations of FTS before mTOR was immunoprecipated with mTAb1. A control immunoprecipitation was conducted using nonimmune IgG (NI). Immune complexes were subjected to SDS-PAGE and immunoblots were prepared with antibodies to mLST8, mTOR, and raptor.
Samples of extracts from 293T cells overexpressing AU1-mTOR, HA-raptor, and HA-mLST8 were incubated for 1 h with increasing concentrations of FTS (●, ▴, ▪) or GTS (∘, Δ, □) before immunoprecipitations were conducted with anti-AU1 antibodies. mTOR kinase activity (●, ∘) was determined by measuring ^32P incorporation into [His^6]PHAS-I in immune complex kinases assays performed with [γ-^32P]ATP (see FIG. 14A). The relative amounts of HA-raptor (▴, Δ) and HA-mLST8 (▪, □) that coimmunoprecipitated with AU1-mTOR were determined after immunoblotting with anti-HA antibodies (see FIG. 14B). The results (mean values+S.E. from 5 experiments) are expressed as percentages of the mTOR activity (FIG. 14A) or coimmunoprecipitating proteins (FIG. 14B) from samples incubated without FTS or GTS, and have been corrected for the amounts of AU1-mTOR immunoprecipitated.
293T cells were transfected with pcDNA3 alone (Vec.) or with a combination of pcDNA3AU1-mTOR, pcDNA33HARaptor, and pcDNA33HA-mLST8. AU1-mTOR was immunoprecipitated and samples of the washed immune complexes were at incubated […] for 30 min with no inhibitors or with the following: caffeine (1 mM), FTS (50 μM), LY294002 (10 μM), rapamycin (1 μM) plus FKBP12 (10 μM), and 1 μM wortmannin. To prevent destruction of wortmannin, incubations were conducted in the absence of thiol reducing agents. Samples of the immune complexes were incubated for 10 min with 10 mM MnCl2, 1 mM [γ-^32P]ATP, and 50 μg/ml [His^6]PHAS-I to assess mTOR activity. Other samples were rinsed twice, subjected to SDS-PAGE, and immunoblotted with anti-HA and anti-AU1 antibodies to determine the amounts of HA-raptor and HA-mLST8 associated with AU1-mTOR. The relative amounts of ^32P incorporated into PHAS-I were determined by phosphorimaging (see FIG. 15B).

mTOR-raptor complex [2] = molecular target: T1, mTOR-raptor complex; test: Coimmunoprecipitation of raptor with mTOR from 293T cells incubated with compound; format: cell-based; details: overexpressed in 293T cells, increasing concentrations, 1 h
Experimental: FIG. 11A & 11B represent data showing FTS inhibits PHAS-I phosphorylation and promotes dissociation of the mTOR-raptor complex in 293T cells. 293T cells were transfected with pcDNA3AU1-mTOR, pcDNA33HARaptor, pcDNA33HA-mLST8, and pCMV-Tag3APHAS-I (FIG. 11A). After 18 h the cells were incubated for 1 h with increasing concentrations of FTS before extracts were prepared. A sample of each extract was subjected to SDS-PAGE and immunoblotted to detect PHAS-I or PThr^36/45. AU1-mTOR was also immunoprecipitated from each extract, and immune complexes were subjected to SDSPAGE and immunoblotted with mTAb2, to detect mTOR, and with anti-HA antibodies, to detect HA-mLST8 and HA-raptor. Nontransfected 293T cells were incubated with increasing concentrations of FTS for 1 h before extracts were prepared. mTOR was immunoprecipitated with mTAb1, and samples were subjected to SDS-PAGE.
FIGS. 12A & 12B represent data showing the effects of incubating cells with increasing concentrations of FTS and GTS on mTOR activity and mTOR association with raptor and mLST8. AU1-mTOR, HA-raptor, and HAmLST8 were overexpressed in 293T cells. The cells were then incubated for 1 h with increasing concentrations of FTS (●, ▴, ▪) or GTS (∘, Δ, □) before extracts were prepared. Immunoprecipitations were then conducted with anti-AU1 antibodies. mTOR kinase activity (●, ∘) was determined by measuring ^32P incorporation into [His^6]PHAS-I in immune complex kinases assays performed with [γ-^32P]ATP. The relative amounts of HA-raptor (▴, Δ) and HA-mLST8 (▪, □) that coimmunoprecipitated with AU1-mTOR were determined after immunoblotting with anti-HA antibodies. The results (mean values±S.E. from 3 experiments) are expressed as percentages of the mTOR activity (FIG. 12A) or coimmunoprecipitating proteins (FIG. 12B) from samples incubated without FTS or GTS, and have been corrected for the amounts of AU1-mTOR immunoprecipitated.
To investigate further the inhibitory effects of FTS on mTOR signaling, the effect of the drug on the association of mTOR, raptor, and mLST8 was determined. AU1-mTOR and HA-tagged forms of raptor and mLST8 were overexpressed in 293T cells, which were then incubated with increasing concentrations of FTS before AU1-mTOR was immunoprecipitated with anti-AU1 antibodies. Immunoblots were prepared with anti-HA antibodies to assess the relative amounts of HA-raptor and HA-mLST8 that coimmunoprecipitated with AU 1-mTOR (FIG. 11A).
Results obtained with overexpressed proteins are not necessarily representative of responses of endogenous proteins. Therefore, experiments were conducted to investigate the effect FTS on the endogenous TORC1 in nontransfected cells. […]

T1 sequence (Q9BVC4 whole entry): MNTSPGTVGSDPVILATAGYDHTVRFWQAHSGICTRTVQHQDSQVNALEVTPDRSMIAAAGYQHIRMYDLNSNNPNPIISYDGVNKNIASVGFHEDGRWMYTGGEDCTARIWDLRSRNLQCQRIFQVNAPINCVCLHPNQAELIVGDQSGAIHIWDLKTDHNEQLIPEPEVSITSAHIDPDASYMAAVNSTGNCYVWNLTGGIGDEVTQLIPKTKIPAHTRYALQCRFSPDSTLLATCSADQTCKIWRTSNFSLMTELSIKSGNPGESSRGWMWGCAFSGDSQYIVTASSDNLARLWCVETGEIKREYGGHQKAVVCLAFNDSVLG
T1 sequence (Q8N122 whole entry): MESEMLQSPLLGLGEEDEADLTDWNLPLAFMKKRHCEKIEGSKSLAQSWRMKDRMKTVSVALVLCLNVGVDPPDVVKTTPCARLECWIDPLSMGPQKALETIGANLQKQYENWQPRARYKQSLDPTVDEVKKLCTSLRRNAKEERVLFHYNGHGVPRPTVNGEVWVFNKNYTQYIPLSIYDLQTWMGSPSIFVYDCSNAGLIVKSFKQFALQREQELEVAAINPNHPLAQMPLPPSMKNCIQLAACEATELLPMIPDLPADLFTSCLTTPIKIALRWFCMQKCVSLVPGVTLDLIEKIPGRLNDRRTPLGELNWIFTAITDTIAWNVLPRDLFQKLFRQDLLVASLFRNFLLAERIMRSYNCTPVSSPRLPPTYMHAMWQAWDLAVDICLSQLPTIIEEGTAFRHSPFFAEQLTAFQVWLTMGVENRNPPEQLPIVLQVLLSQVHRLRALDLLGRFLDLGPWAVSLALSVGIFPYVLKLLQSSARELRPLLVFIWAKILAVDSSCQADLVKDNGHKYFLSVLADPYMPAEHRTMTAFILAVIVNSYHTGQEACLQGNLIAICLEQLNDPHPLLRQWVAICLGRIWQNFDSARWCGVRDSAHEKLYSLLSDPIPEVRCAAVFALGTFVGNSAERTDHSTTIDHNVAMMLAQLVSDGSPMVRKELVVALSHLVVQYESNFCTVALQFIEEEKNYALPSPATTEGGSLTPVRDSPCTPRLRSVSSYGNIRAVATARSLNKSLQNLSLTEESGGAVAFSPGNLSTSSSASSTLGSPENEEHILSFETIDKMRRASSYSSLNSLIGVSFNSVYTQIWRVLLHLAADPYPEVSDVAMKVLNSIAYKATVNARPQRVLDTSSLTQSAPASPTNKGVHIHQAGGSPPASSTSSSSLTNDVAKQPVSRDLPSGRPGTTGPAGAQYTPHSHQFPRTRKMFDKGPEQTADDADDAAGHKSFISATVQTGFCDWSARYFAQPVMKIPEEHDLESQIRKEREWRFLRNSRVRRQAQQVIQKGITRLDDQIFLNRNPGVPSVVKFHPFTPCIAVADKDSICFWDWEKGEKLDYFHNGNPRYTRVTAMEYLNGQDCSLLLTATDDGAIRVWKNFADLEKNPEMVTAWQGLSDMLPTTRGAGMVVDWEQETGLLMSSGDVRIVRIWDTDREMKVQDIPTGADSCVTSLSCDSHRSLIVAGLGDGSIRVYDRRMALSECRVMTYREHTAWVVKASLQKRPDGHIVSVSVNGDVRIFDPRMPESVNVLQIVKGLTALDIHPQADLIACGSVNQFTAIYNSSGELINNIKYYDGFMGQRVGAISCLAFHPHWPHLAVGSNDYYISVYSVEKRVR

Structure (SMILES) | association of AU1-mTOR and HA-raptor (mTOR-raptor complex [1]; FTS 50 μM, comparison with other mTOR inhibitors) | amount of HA-raptor that coimmunoprecipitated with AU1-mTOR (mTOR-raptor complex [1]) | amount of HA-raptor that coimmunoprecipitated with AU1-mTOR (mTOR-raptor complex [2])
CC(C)=CCC/C(C)=C/CC/C(C)=C/CSc1ccccc1C(=O)O [FTS, farnesylthiosalicylic acid] | decreased | decreased | progressive decrease
CC(C)=CCC/C(C)=C/CSc1ccccc1C(=O)O [GTS, S-geranylthiosalicylic acid, reference compound] |  | progressive decreases | relatively little effect
